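Interpolation was linear, between the two tested concentrations surrounding the appropriate level; five concentrations were tested over 48 hours in 96-well plates. At the TGI there is no net growth.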
How the values were obtained:
Assay in all cases: DTP human tumour cell line panel, 48 h
[1] = system: MDA-MB-435
[2] = system: RXF 393 renal
[3] = system: MOLT-4 leukemia
[4] = system: SF-268 CNS
[5] = system: 786-0 renal
[6] = system: TK-10 renal
[7] = system: NCI-H522 lung
[8] = system: SK-OV-3 ovarian
[9] = system: SR leukemia
[10] = system: OVCAR-8 ovarian
[11] = system: MCF7 breast
[12] = system: OVCAR-3 ovarian
[13] = system: PC-3 prostate
[14] = system: SK-MEL-2 melanoma
[15] = system: RPMI-8226 leukemia
[16] = system: SN12C renal
[17] = system: LOX IMVI melanoma
[18] = system: SW-620 colon
[19] = system: UACC-257 melanoma
[20] = system: K-562 leukemia
[21] = system: COLO 205 colon
[22] = system: NCI-H226 lung
[23] = system: HOP-92 NSCLC
[24] = system: NCI-H23 lung
[25] = system: SK-MEL-5 melanoma
[26] = system: HL-60(TB) leukemia
[27] = system: M14 melanoma
[28] = system: SK-MEL-28 melanoma
[29] = system: MALME-3M melanoma
[30] = system: SF-539 CNS
[31] = system: UO-31 renal
[32] = system: KM12 colon
[33] = system: UACC-62 melanoma
[34] = system: CAKI-1 renal
[35] = system: SNB-19 CNS
[36] = system: U251 CNS
[37] = system: MDA-N
[38] = system: OVCAR-5 ovarian
[39] = system: SF-295 CNS
[40] = system: A549 NSCLC
[41] = system: NCI/ADR-RES ovarian
[42] = system: HCT-116 colon
[43] = system: IGROV1 ovarian
[44] = system: HCT-15 colon
[45] = system: SNB-75 CNS
[46] = system: CCRF-CEM leukemia
[47] = system: HT29 colon
[48] = system: DU-145 prostate
[49] = system: T-47D breast
[50] = system: HOP-62 NSCLC
[51] = system: BT-549 breast
[52] = system: EKVX NSCLC
[53] = system: HS 578T breast
[54] = system: MDA-MB-231 breast
[55] = system: A498 renal
[56] = system: ACHN renal
[57] = system: HCC-2998 colon
[58] = system: OVCAR-4 ovarian
[59] = system: NCI-H460 lung

CC(NC(=O)CNP(=O)(c1ccccc1)c1ccccc1)C(=O)NC(Cc1ccccc1)C(=O)OCc1ccccc1 (stereo not drawn)
TGI [1]: > 100 µM | TGI [2]: 75.5 µM | TGI [3]: 47.1 µM | TGI [4]: 57.2 µM | TGI [5]: 48.1 µM | TGI [6]: > 100 µM | TGI [7]: 49.8 µM | TGI [8]: 51.3 µM | TGI [9]: 70.8 µM | TGI [10]: > 100 µM | TGI [11]: 55 µM | TGI [12]: > 100 µM | TGI [13]: > 100 µM | TGI [14]: > 100 µM | TGI [15]: 98.5 µM | TGI [16]: > 100 µM | TGI [17]: 87.8 µM | TGI [18]: > 100 µM | TGI [19]: > 100 µM | TGI [20]: > 10 µM | TGI [21]: > 10 µM | TGI [22]: > 100 µM | TGI [23]: > 100 µM | TGI [24]: > 100 µM | TGI [25]: 60.5 µM | TGI [26]: > 100 µM | TGI [27]: > 100 µM | TGI [28]: 49.3 µM | TGI [29]: > 100 µM | TGI [30]: > 100 µM | TGI [31]: > 100 µM | TGI [32]: > 100 µM | TGI [33]: > 100 µM | TGI [34]: > 100 µM | TGI [35]: > 100 µM | TGI [36]: 62.3 µM | TGI [37]: > 100 µM | TGI [38]: > 100 µM | TGI [39]: 42.5 µM | TGI [40]: > 100 µM | TGI [41]: > 100 µM | TGI [42]: > 100 µM | TGI [43]: > 100 µM | TGI [44]: > 100 µM | TGI [45]: 48.5 µM | TGI [46]: > 10 µM | TGI [47]: > 100 µM | TGI [48]: > 100 µM | TGI [49]: > 100 µM | TGI [50]: > 100 µM | TGI [51]: > 100 µM | TGI [52]: > 100 µM | TGI [53]: > 100 µM | TGI [54]: 96.6 µM | TGI [55]: > 100 µM

Cc1[nH]c2ncn(Nc3ccccc3)c(=N)c2c1Cc1ccccc1
TGI [56]: > 100 µM | TGI [1]: > 100 µM | TGI [2]: > 91.6 µM | TGI [3]: > 100 µM | TGI [4]: > 100 µM | TGI [5]: > 100 µM | TGI [6]: > 100 µM | TGI [7]: > 100 µM | TGI [57]: > 100 µM | TGI [8]: > 100 µM | TGI [9]: > 100 µM | TGI [10]: > 100 µM | TGI [11]: > 100 µM | TGI [12]: > 100 µM | TGI [13]: > 100 µM | TGI [15]: > 100 µM | TGI [16]: > 100 µM | TGI [17]: > 100 µM | TGI [18]: > 100 µM | TGI [19]: > 100 µM | TGI [20]: > 100 µM | TGI [21]: > 100 µM | TGI [22]: > 100 µM | TGI [23]: > 100 µM | TGI [24]: > 100 µM | TGI [25]: > 100 µM | TGI [26]: > 100 µM | TGI [58]: > 100 µM | TGI [27]: > 100 µM | TGI [28]: > 100 µM | TGI [29]: > 100 µM | TGI [30]: > 100 µM | TGI [31]: > 100 µM | TGI [32]: > 56.8 µM | TGI [33]: > 100 µM | TGI [34]: > 70.6 µM | TGI [35]: > 100 µM | TGI [36]: > 100 µM | TGI [37]: > 100 µM | TGI [38]: > 100 µM | TGI [39]: > 100 µM | TGI [40]: > 100 µM | TGI [41]: > 100 µM | TGI [42]: > 100 µM | TGI [43]: 98.4 µM | TGI [44]: > 100 µM | TGI [59]: > 100 µM | TGI [45]: > 100 µM | TGI [46]: > 100 µM | TGI [47]: > 100 µM | TGI [48]: > 100 µM | TGI [49]: > 86.9 µM | TGI [50]: > 100 µM | TGI [51]: > 100 µM | TGI [52]: > 100 µM | TGI [53]: > 100 µM | TGI [54]: > 100 µM | TGI [55]: > 100 µM
